Source: patent US20240270821A1, “GIP/GLP1/GCG TRI-RECEPTOR AGONISTS AND USES THEREOF” (priority 2023, published 2024)
Like-named read-outs stand apart in the source and are kept apart here. Starred links: 1 amine or outer side, 2 acyl side, 3 side chain; linkers in the order of their positions; H or OH if unused. Non-standard residues stand in square brackets, D forms with d. Groups on a side chain read outwards from the residue. *: point of attachment. C20 diacid = O=C(O)CCCCCCCCCCCCCCCCCCC(=O)*; C18 diacid = O=C(O)CCCCCCCCCCCCCCCCC(=O)*; γGlu = O=C(O)[C@H](CCC(=O)[*:2])N[*:1]; αMe4Pal = C[C@](N)(Cc1ccncc1)C(=O)O; αMeY = C[C@](N)(Cc1ccc(O)cc1)C(=O)O; αMeL = CC(C)C[C@](C)(N)C(=O)O; Orn = NCCC[C@H](N)C(=O)O; AEEA = NCCOCCOCC(=O)O; Aib = CC(C)(N)C(=O)O

Experiments:
Type in all cases: cell-based
hGLP-1R [1] = target: T1, hGLP-1R (Homo sapiens, UniProt P43220); experiment: Functional cAMP activity in the presence of 1% HSA
T1 sequence (P43220 24-463): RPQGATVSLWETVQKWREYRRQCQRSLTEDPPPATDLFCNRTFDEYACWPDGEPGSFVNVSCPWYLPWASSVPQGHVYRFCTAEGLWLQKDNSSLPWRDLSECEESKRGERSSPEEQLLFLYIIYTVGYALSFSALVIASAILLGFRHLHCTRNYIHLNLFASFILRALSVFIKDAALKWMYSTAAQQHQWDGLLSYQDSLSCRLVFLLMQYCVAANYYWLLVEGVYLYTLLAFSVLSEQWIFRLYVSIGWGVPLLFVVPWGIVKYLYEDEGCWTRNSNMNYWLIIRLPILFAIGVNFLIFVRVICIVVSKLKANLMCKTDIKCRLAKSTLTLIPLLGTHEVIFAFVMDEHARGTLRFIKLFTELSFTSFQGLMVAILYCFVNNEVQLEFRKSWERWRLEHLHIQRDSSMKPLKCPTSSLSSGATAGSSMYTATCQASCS

hGIPR [2] = target: T2, hGIPR (Homo sapiens, UniProt P48546); experiment: Functional cAMP activation in the presence of 0.1% casein (no HSA);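 further: intracellular cAMP rise after 30 min at 37 °C read by HTRF against a standard curve, scaled between buffer alone (0%) and top control ligand concentration (100%), four-parameter fit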
T2 sequence (P48546 22-466): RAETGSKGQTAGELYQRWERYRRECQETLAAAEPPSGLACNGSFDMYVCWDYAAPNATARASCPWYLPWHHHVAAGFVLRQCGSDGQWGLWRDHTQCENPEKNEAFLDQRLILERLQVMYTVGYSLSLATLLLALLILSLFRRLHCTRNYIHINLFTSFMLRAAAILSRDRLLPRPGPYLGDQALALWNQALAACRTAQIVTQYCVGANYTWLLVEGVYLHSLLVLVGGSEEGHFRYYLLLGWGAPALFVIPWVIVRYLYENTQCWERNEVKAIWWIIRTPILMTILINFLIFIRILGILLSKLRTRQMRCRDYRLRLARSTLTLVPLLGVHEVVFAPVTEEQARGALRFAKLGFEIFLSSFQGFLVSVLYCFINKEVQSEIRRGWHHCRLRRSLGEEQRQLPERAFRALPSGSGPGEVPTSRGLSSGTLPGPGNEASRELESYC

hGcgR = hGcgR (Homo sapiens, UniProt P47871); experiment: as above;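 further: intracellular cAMP rise after 30 min at 37 °C, read by HTRF against a cAMP standard curve, scaled from buffer only (0%) to maximal control ligand response (100%)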
Chain of hGcgR (P47871 26-477): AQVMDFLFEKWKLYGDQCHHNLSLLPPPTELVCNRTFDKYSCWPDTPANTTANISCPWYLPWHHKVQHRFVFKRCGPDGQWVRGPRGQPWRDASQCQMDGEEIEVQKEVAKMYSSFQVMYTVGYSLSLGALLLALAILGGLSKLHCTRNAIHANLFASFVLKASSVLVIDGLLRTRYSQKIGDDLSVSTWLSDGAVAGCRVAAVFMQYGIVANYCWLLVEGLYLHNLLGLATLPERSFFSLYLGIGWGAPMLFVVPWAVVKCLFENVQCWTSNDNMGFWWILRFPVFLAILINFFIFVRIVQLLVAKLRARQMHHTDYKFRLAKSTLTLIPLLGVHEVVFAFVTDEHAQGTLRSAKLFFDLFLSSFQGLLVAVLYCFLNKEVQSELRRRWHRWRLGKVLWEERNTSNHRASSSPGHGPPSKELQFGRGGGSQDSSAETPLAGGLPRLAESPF

hGLP-1R [3] = target: T1, hGLP-1R; experiment: as above
human GcgR = human GcgR (Homo sapiens, UniProt P47871); experiment: Functional cAMP activity in the presence of 1% HSA
Chain of human GcgR (P47871 26-477): as above

hGIPR [4] = target: T2, hGIPR; experiment: Functional cAMP activity in the presence of 1% HSA
[5] = read-out: cAMP Rel EC50, hGLP-1R
[6] = in the presence of 0.1% casein (no HSA), geometric mean, read-out: Relative cAMP EC50, hGIPR
[7] = in the presence of 0.1% casein (no HSA), geometric mean, read-out: Relative cAMP EC50, hGcgR
[8] = in the presence of 0.1% casein (no HSA), geometric mean, read-out: Relative cAMP EC50, hGLP-1R
[9] = HEK-293 clonal cell line, in the presence of 1% HSA, geometric mean of relative EC50, read-out: cAMP Rel EC50, hGLP-1R
[10] = HEK-293 clonal cell line, in the presence of 1% HSA, geometric mean of relative EC50, read-out: cAMP Rel EC50, hGcgR
[11] = HEK-293 clonal cell line, in the presence of 1% HSA, geometric mean of relative EC50, read-out: cAMP Rel EC50, hGIPR
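Wherever Relative cAMP EC50, hGLP-1R is given: intracellular cAMP rise after 30 min at 37 °C read by HTRF, normalized between buffer only (0%) and maximal control ligand (100%), four-parameter variable-slope fit.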

| Substance | EC50 (hGLP-1R [1]; [5]) | EC50 (human GcgR; read-out: cAMP Rel EC50, hGcgR) | EC50 (hGIPR [4]; read-out: cAMP Rel EC50, hGIPR) | EC50 (hGIPR [2]; [6]) | EC50 (hGcgR; [7]) | EC50 (hGLP-1R [3]; [8]) | also measured |
| --- | --- | --- | --- | --- | --- | --- | --- |
| H-Y[Aib]QGTFTSDFS[Orn][αMeL]LDKK([γGlu-γGlu-C18 diacid])AQ[Aib]AFIEYLLEGGPSS[Aib]APPPGGS-NH2 [Example 770] | 240 nM | 390 nM | 18.2 nM | – | – | – | EC50 (hGIPR [2]; read-out: Relative cAMP EC50, hGIPR): 0.244 nM; EC50 (hGcgR; read-out: Relative cAMP EC50, hGcgR): 5.37 nM; EC50 (hGLP-1R [3]; read-out: Relative cAMP EC50, hGLP-1R): 3.91 nM |
| H-Y[Aib]QGTFTSDFS[Orn][αMeL]LDKK([γGlu-γGlu-C18 diacid])AQ[Aib]AFIEYLLE[Aib]GPSSGAPPPSGS-NH2 [Example 201] | 679 nM | 969 nM | 14.3 nM | 0.0553 nM | 3.84 nM | 3.16 nM | – |
| H-Y[Aib]QGTFTSDFS[Orn][αMeL]LDKK([γGlu-γGlu-γGlu-C18 diacid])AQ[Aib]AFIEYLLE[Aib]GPSSGAPPPSGS-NH2 [Example 202] | 376 nM | 697 nM | 11.7 nM | 0.0965 nM | 11.4 nM | 4.79 nM | – |
| H-Y[Aib]QGTFTSDFS[Orn][αMeL]LD[Orn]K([γGlu-γGlu-C18 diacid])AQ[Aib]AFIEYLLEGGPSSGAPPPGGSEE-NH2 [Example 1048] | – | – | – | 0.356 nM | 6.9 nM | 6.23 nM | EC50 (hGLP-1R [1]; [9]): 1900 nM; EC50 (human GcgR; [10]): 1930 nM; EC50 (hGIPR [4]; [11]): 108 nM |
| H-Y[Aib]QGTFTSDFS[Orn][αMeL]LD[Orn]K([γGlu-γGlu-C18 diacid])AQ[Aib]AFIE[αMe4Pal]LLEGGPSSGAPPPGGSEE-NH2 [Example 1050] | – | – | – | 0.152 nM | 6.8 nM | 7.65 nM | EC50 (hGLP-1R [1]; [9]): 1240 nM; EC50 (human GcgR; [10]): 2040 nM; EC50 (hGIPR [4]; [11]): 68.5 nM |
| H-Y[Aib]QGTFTSDFS[Orn][αMeL]LD[Orn]K([γGlu-γGlu-C18 diacid])AQ[Aib]AFIE[αMeY]LLEGGPSSGAPPPGGSEE-NH2 [Example 1049] | – | – | – | 0.24 nM | 6.33 nM | 2.23 nM | EC50 (hGLP-1R [1]; [9]): 780 nM; EC50 (human GcgR; [10]): 1280 nM; EC50 (hGIPR [4]; [11]): 56.2 nM |
| H-Y[Aib]QGTFTSDYSI[αMeL]LDKIAAK([AEEA-AEEA-γGlu-C20 diacid])QFVEWLLA[Aib]GPSSGEPPPSEG-NH2 [Example 324] | 1060 nM | 1410 nM | 20.7 nM | 0.164 nM | 5.74 nM | 4.4 nM | – |
| H-Y[Aib]QGTFTSDYSI[αMeL]LDKIAAK([AEEA-AEEA-γGlu-C20 diacid])QFVEYLIAGGPSSGEPPPSEG-NH2 [Example 312] | 589 nM | 4070 nM | 97.7 nM | 0.504 nM | 7.5 nM | 2.66 nM | – |
| H-Y[Aib]QGTFTSDYSI[αMeL]LDKQAAK([AEEA-AEEA-γGlu-C20 diacid])AFVEWLLA[Aib]GPSSGEPPPSEG-NH2 [Example 317] | 234 nM | 1500 nM | 62.8 nM | 0.474 nM | 2.42 nM | 1.32 nM | – |
| H-Y[Aib]QGTFTSDYSI[αMeL]LDKQAAK([AEEA-AEEA-γGlu-C20 diacid])QFIEWLIEGGPSSGEPPPGAE-NH2 [Example 319] | – | – | – | – | – | – | EC50 (hGLP-1R [1]): 119 nM; EC50 (hGIPR [2]): 0.485 nM; EC50 (hGcgR): 4.81 nM; EC50 (hGLP-1R [3]): 0.947 nM; EC50 (human GcgR): 1650 nM; EC50 (hGIPR [4]): 60.1 nM |
| H-Y[Aib]QGTFTSDYSI[αMeL]LDKQAAK([AEEA-AEEA-γGlu-C20 diacid])QFIEWLIEGGPSSGEPPPGEG-NH2 [Example 318] | 111 nM | 1970 nM | 52.8 nM | 0.378 nM | 5.03 nM | 0.698 nM | – |
| H-Y[Aib]QGTFTSDYSI[αMeL]LDKQAAK([AEEA-AEEA-γGlu-C20 diacid])QFVEWLIAGGPSSGEPPPAEG-NH2 [Example 332] | 298 nM | 3340 nM | 78.2 nM | 0.413 nM | 11.8 nM | 1.24 nM | – |
| H-Y[Aib]QGTFTSDYSI[αMeL]LDKQAAK([AEEA-AEEA-γGlu-C20 diacid])QFVEWLIA[Aib]GPSSGEPPPGEG-NH2 [Example 333] | 182 nM | 1410 nM | 36.3 nM | 0.265 nM | 7.09 nM | 0.705 nM | – |
| H-Y[Aib]QGTFTSDYSI[αMeL]LDKQAAK([AEEA-AEEA-γGlu-C20 diacid])QFVEWLIA[Aib]GPSSGEPPPGSG-NH2 [Example 335] | 150 nM | 1410 nM | 46.7 nM | 0.292 nM | 6.11 nM | 0.461 nM | – |
| H-Y[Aib]QGTFTSDYSI[αMeL]LDKQAAK([AEEA-AEEA-γGlu-C20 diacid])QFVEWLIA[Aib]GPSSGEPPPGTG-NH2 [Example 336] | 227 nM | 1740 nM | 64.4 nM | 0.306 nM | 7.05 nM | 0.921 nM | – |
| H-Y[Aib]QGTFTSDYSI[αMeL]LDKQAAK([AEEA-AEEA-γGlu-C20 diacid])QFVEWLIA[Aib]GPSSGEPPPSEG-NH2 [Example 326] | 172 nM | 1500 nM | 83.7 nM | 0.3 nM | 5.34 nM | 0.555 nM | – |
| H-Y[Aib]QGTFTSDYSI[αMeL]LDKQAAK([AEEA-AEEA-γGlu-C20 diacid])QFVEWLLA[Aib]GPSSGAPPPSEG-NH2 [Example 327] | 473 nM | 1400 nM | 63.3 nM | 0.312 nM | 3.04 nM | 1.61 nM | – |
| H-Y[Aib]QGTFTSDYSI[αMeL]LDKQAAK([AEEA-AEEA-γGlu-C20 diacid])QFVNWLLA[Aib]GPSSGEPPPSEG-NH2 [Example 325] | 371 nM | 774 nM | 82.7 nM | 0.351 nM | 2.43 nM | 1.56 nM | – |
| H-Y[Aib]QGTFTSDYSI[αMeL]LD[Orn]QAAK([AEEA-AEEA-γGlu-C20 diacid])QFVEWLLA[Aib]GPSSGEPPPSEG-NH2 [Example 328] | 462 nM | 2040 nM | 91.1 nM | 0.544 nM | 10.3 nM | 1.3 nM | – |
| H-Y[Aib]QGTFTSDYSK[αMeL]LDKK([AEEA-γGlu-C20 diacid])AQQAFIEYLIAGGPSSGAPPPSSE-NH2 [Example 322] | 135 nM | 2620 nM | 89.3 nM | 0.264 nM | 5.41 nM | 0.394 nM | – |
| H-Y[Aib]QGTFTSDYSK[αMeL]LDKK([AEEA-γGlu-C20 diacid])AQQAFIEYLIAGGPSSGEPPPSGD-NH2 [Example 337] | 272 nM | 2950 nM | 99.1 nM | 0.332 nM | 5.95 nM | 0.686 nM | – |
